Laboratory results reported in patent US20260256668A1, “METHODS FOR STRENGTHENING AND REPAIRING HAIR” (Living Proof, Inc., priority 2023, published 2026).

Legend:
[1] = Water contact angle (surface hydrophobicity), DSA100M Drop Shape Analyzer
Protocol: For this test, […], which was prepared by treating European virgin brown hair with a mixture of BW2 bleaching powder and clear 30 V developer (1:1.5 ratio, 5 g mixture per 1.5 g of hair) for 20 min under a Belvedere hooded dryer with high heat setting, followed by 30 s water rinse, 30 s 10% SLES wash, and air dry at room temperature. […] In the DSA method, a single hair fiber is mounted in a sample holder and focused by the digital camera of DSA100M. Then a droplet of filtered DI water (20-60 nL) is applied to the top of the hair fiber by a digital droplet applier, A video is then recorded until the disappearance of the water droplet. The water contact angle is obtained using the first image of the water droplet recorded. The data is collected for 3 fibers per treatment and 3 points per fiber, a total of 9 data points per treatment.

[2] = Hair denaturation temperature (Td) by differential scanning calorimeter (DSC); conditions: 3× bleached hair; for hair denaturation temperature (Td) compared to bleached, virgin and phytic acid (PA) treated hair: 2 wt % active aqueous solution, pH 4.0-4.5, 10 min, blow dry (FIGS. 4, 6, 7)
Protocol: European virgin brown hair was bleached three times to obtain the 3× bleached hair model. Each bleaching was done with a mixture of bleaching powder (BW2) and 40V clear developer at 1:2 ratio (5 g mixture per 1.5 g of hair) for 1 hour at room temperature, followed by 30 s water rinse, 1× wash with Sodium Lauryl Ether Sulfate (SLES), and dried in a humidity chamber for 15 min at 50° C., 20% RH. […] For each DSC measurement, a 3-5 mg of hair sample in 50 μL Deionized water is sealed and equilibrated (overnight) in a stainless-steel pressure resistant high-volume pan, then heated from 25° C. to 180° C. at a 5° C./min heating rate.

[3] = Dia-Stron single fiber tensile (mechanical) testing; conditions: 3× bleached hair, compared to bleached hair before treatment (FIG. 8)
Protocol: All single fiber tensile measurements are performed using a Dia-Stron MTT686/MTT690 (under 100% extension at gauge force of […], break threshold of 5 g, rate of 20 mm/min, maximum force of 2000 gmf and premature failure threshold of 10% strain). Before the tensile testing, all hair fibers (30 mm in length, ≥20 fibers per treatment) are fixed by 2 brass crimps at the ends and mounted on a Dia-Stron tray. Initial dimension measurements are collected using a Dia-Stron FDAS770 (double ended samples, sample size of 30 mm in length, no of slices of 5 under one rotation per slice), followed by equilibration in Deionized water for at least 2 h prior to testing.

Row | Compound | hair denaturation temperature (Td) compared to bleached, virgin and phytic acid (PA) treated hair [2] | Young's modulus [3] | also measured
1 | Phosphatidylcholine [PC] | – | – | water contact angle relative to virgin hair ([1]; aqueous solution 1 wt % active (FIG. 14)): recovered close to the virgin level
2 | CCCCCCCCCCCCOP(=O)(O)O [DPhate, Lauryl phosphate] | – | – | water contact angle relative to virgin hair ([1]; ethanol solution 2 wt %, 10 min, blow dry (FIG. 12)): recovered significantly and close to the virgin level
3 | O=P(O)(O)O[C@H]1[C@H](OP(=O)(O)O)[C@@H](OP(=O)(O)O)[C@H](OP(=O)(O)O)[C@@H](OP(=O)(O)O)[C@H]1OP(=O)(O)O [PA, phytic acid, reference compound] | – | – | hair denaturation temperature (Td) compared to the base formula ([2]; washed, 0.25 g formula (PA 0.75 wt %, with or without DPhate 1 wt %) 10 min, blow dried (FIG. 17)): significantly increased Td; hair surface hydrophobicity (water contact angle) compared to base formula ([1]; formula with PA 0.75 wt %, with or without DPhate 1 wt % (FIG. 18)): significantly improved hair surface hydrophobicity
4 | NCP(=O)(O)O [AMPA, Aminomethyl phosphonic acid] | full recovery of Td to the virgin level | biggest increases in Young's modulus | –
5 | C=CP(=O)(O)O [VPA, Vinyl phosphonic acid] | full recovery of Td to the virgin level | biggest increases in Young's modulus | –
